What was measured:
[1] = Solubility of trans-stilbene oxide in water vs 10% copolymer solution (UV spectra); assay type: physicochemical; conditions: in 10% solution of p-MDM/DGDM copolymer
Experimental: Solutions of trans-stilbene oxide were prepared in water and in a 10% solution of p-MDM/DGDM copolymer.

[2] = Solubility of DM monomers and polymers in solvents; assay type: physicochemical
Text: The DM monomers as prepared by the methods exemplified in Examples 1-5 above were converted to polymers by the anionic polymerization reaction as illustrated in Reaction Scheme A and the physical properties of homopolymers of differing monomers are presented in Table 1. With reference to Table 1 it should be noted that all of the resulting polymers have very low poly dispersity (Mw/Mn). […] Water-soluble polymers are particularly useful in biological applications such as surface protection from non-specific adsorption. The data also illustrates that the glass transition temperature (Tg) of polymers with alkyl substituents decreases as the alkyl chain length increases. […] The DM polymers wherein R=2-methoxyethyl and R=ethoxy-2-methoxyethyl show lower critical solution temperature (LCST) behavior.

| solubility (in words) [2] | SMILES | solubility relative to solubility in water [1] |
| --- | --- | --- |
|  | c1ccc([C@@H]2O[C@H]2c2ccccc2)cc1 (relative stereo) [trans-stilbene oxide] | improved |
| soluble in hexane | CCCCCCCCCCO[C@H]1[C@@H]2O[C@@H]2[C@@H]2OC[C@H]1O2 [DDM, 1,6:2,3-dianhydro-4-O-decyl-β-D-mannopyranose] |  |
| soluble in water | COCCOC1C2COC(O2)C2OC12 [MEDM, 1,6:2,3-dianhydro-4-O-(2-methoxyethyl)-β-D-mannopyranose] |  |

— patent US8642502B2, “Reversible gel-forming compositions for controlled delivery of bioactive substances” (TRGel, LLC, priority 2010, dated 2014)
